Here are results for 99 compounds from PubChem BioAssay AID651703 (Broad Institute, 2012).

This assay addresses Transforming acidic coiled-coil-containing protein 3 (Homo sapiens) (UniProt Q9Y6A5). Briefly: ARNT/TACC3 interaction disruptors, potency, confirmation, biochemical, AlphaScreen, cherry-picked samples (AID 651703).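 Note: TACC3 partner is the GST-tagged E629A mutant dimer; hits lower the signal meaning they disrupt ARNT binding to TACC3.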 The conditions noted are these: AlphaScreen His-ARNT PAS-B / GST-TACC3 binding, luminescence. A general note: In Alpha technology, singlet oxygen from a donor bead excites a nearby acceptor bead.
One may read the AC50 as the midpoint of the concentration-response curve, whichever way the signal moves. For the compound `O=[N+]([O-])c1ccc(O)c(-c2nn[nH]n2)c1`, the AC50 is 14 µM.

For the compound `CN(Cc1ccccc1)C(=O)c1[nH]cnc1C(=O)Nc1nccs1`, the AC50 is 22.5 µM. The result for `COc1cc(OC)cc(C(=O)Oc2c(CN3CCOCC3)cc(Cl)c3cccnc23)c1` reads 31.1 µM; that for `COC(=O)C1=COC(C)C2CN3CCc4c([nH]c5cc(OC)c(OC)cc45)C3CC12` (centres undefined), 67.6 µM; that for `CCN(CCCl)c1cc(CN(C)C)cc(NC(=O)c2ccc(C(=O)Nc3cc(CN(C)C)cc(N(CC)CCCl)c3)cc2)c1`, 1.92 µM. In the case of `O=C(Nc1nccs1)c1cnccn1`, the AC50 is 63.9 µM. For the compound `COc1cc(CNCc2ccccn2)ccc1OCc1cccc(Cl)c1`, the AC50 is 62.6 µM. For `O=S(=O)(N[C@@H]1CC[C@H](CCn2cc(-c3ccccn3)nn2)O[C@H]1CO)c1cccc(F)c1`, the AC50 is 18.2 µM. Under `Cc1cccc(CNC(=O)c2cc(-c3ccccc3)on2)c1` stands 23.4 µM; under `Cc1ccccc1C(=O)Nc1cccc(C(=O)N/N=C/c2cc(Cl)cc([N+](=O)[O-])c2O)c1`, 40 µM. Under `CCOc1cc(N2CCOCC2)c(OCC)cc1NC(=O)COc1cccc2cccnc12` stands 20.3 µM; under `O=C(CSc1ccc2nnc(-c3ccccn3)n2n1)Nc1nccs1`, 11.2 µM; under `O=C(O)C1CCCCC1C(=O)NCCCn1ccnc1` (centres undefined), 54.4 µM. The result for `c1ccc(CCNc2nc(-c3ccccn3)nc3ccccc23)cc1` reads 20.1 µM. In the case of `O=S(=O)(N[C@H]1CC[C@@H](CCn2cc(-c3ccccn3)nn2)O[C@@H]1CO)c1cccc(F)c1`, the AC50 is 10.9 µM. `CCOc1ncccc1C(=O)OCC(=O)Nc1nnc(-c2ccccc2)o1`: the AC50 was 21.6 µM. `CCO/C=C1/C(=O)N(Cc2ccccc2)C(=O)c2ccccc21`: the AC50 is 29 µM. The result for `CCOc1ccc(NC(=O)CC(NCc2ccccn2)C(=O)O)cc1` (centres undefined) reads less than 0.5 µM. Under `COCc1ccc(O)c2ncccc12` stands 2.22 µM; under `O=C(Nc1nnc(-c2ccco2)o1)c1ccc(S(=O)(=O)N2CCOCC2)cc1`, 36.1 µM; under `O=C(C1CCCC1)N1C[C@@H]2[C@H](c3ccccc31)[C@H](CO)N2C(=O)Cc1ccccn1`, 67.4 µM. The result for `Cc1ccc(C(=O)Nc2nc(-c3ccccn3)cs2)o1` reads 2.07 µM; that for `CN1CCc2c(sc3c2C(=O)NC(c2ccccn2)N3)C1` (centres undefined), 5.51 µM; that for `O=C(CSc1nnc(-c2ccccn2)o1)Nc1ccccc1F`, 13 µM.

As to `CO[C@@H]1CN(C)C(=O)c2cc(NS(=O)(=O)CC(F)(F)F)ccc2OC[C@@H](C)N(C(=O)c2ccc3c(c2)OCO3)C[C@@H]1C`, the AC50 was 58 µM.

In the case of `CCCn1nc(C(=O)Nc2nc(-c3ccccn3)cs2)c2ccccc2c1=O`, the AC50 was 9.63 µM.

Take `O=C(NN=C(c1ccccc1)c1ccccn1)c1ccccc1`: the AC50 was 16.9 µM. Turning to `Cc1ccc(Cn2cccc(NS(C)(=O)=O)c2=O)cc1`, the AC50 is 64.7 µM. The result for `O=C(NNc1ccccn1)C(=O)NNS(=O)(=O)c1ccc(Cl)cc1` reads 15.6 µM. Under `O=C(Nc1nnc(-c2ccccc2Cl)o1)c1cccnc1` stands 15.8 µM; under `CC(C)(C)CCNC(=O)c1cc(-c2ccccc2)on1`, 21.5 µM; under `Cc1ccc(C2(C)NC(=O)N(CC(=O)Nc3nc(-c4ccccn4)cs3)C2=O)cc1` (centres undefined), 4.67 µM.

Regarding `Cn1c(CNc2ccccc2O)nc2ccccc21`, the AC50 is 21.8 µM.

Consider `Cc1cc(=O)[nH]c(-n2ncc(C#N)c2N)n1`, for which the AC50 is 59.7 µM. The result for `O=S(=O)(N[C@H]1CC[C@H](CCn2cc(-c3ccccn3)nn2)O[C@@H]1CO)c1cccc(F)c1` reads 10.7 µM; that for `CN1CC[C@@]2(C)c3cc(O)ccc3N(C)[C@@H]12`, 60.1 µM. With `Cc1cc(=O)[nH]c(-n2[nH]c3c(c2=O)CCCC3)n1`, the AC50 was 39.3 µM. Under `N#Cc1ccc(C(=O)Nc2nnc(-c3ccco3)o2)cc1` stands 27.7 µM; under `Oc1ccc(CN2CCN(Cc3ccccc3)CC2)c2cccnc12`, 2.41 µM; under `O=C(Nc1nc(-c2ccccn2)cs1)c1ccc(F)c(S(=O)(=O)N2CCOCC2)c1`, 2.76 µM. The result for `O=C(CN1C(=O)CCC1=O)Nc1nc(-c2ccccn2)cs1` reads 4.39 µM; that for `O=C(CSc1cccc2cccnc12)N1CCCC1`, 3.28 µM. On to `CC(=O)Nc1cccc(C(=O)OCC(=O)Nc2nnc(-c3ccccc3)o2)c1`, for which the AC50 was 16.3 µM.

For the compound `c1ccc(C2=Nn3c(nnc3-c3ccccn3)SC2)cc1`, the AC50 was 64.9 µM.

Turning to `O=C(CSc1ccc(-c2ccccn2)nn1)NCc1ccc(F)cc1`, the AC50 was 6.65 µM. The result for `Cc1nc2ncccn2c1-c1csc(Nc2ccc(O)cc2)n1` reads 4.61 µM; that for `COc1cccc(CNc2nc(-c3ccccn3)nnc2-c2ccccc2)c1`, 0.794 µM; that for `Oc1c(CN2CCCCC2)cc(Br)c2cccnc12`, 0.995 µM. The result for `Cc1ccc(C)c(S(=O)(=O)N2CCN(Cc3ccc(O)c4ncccc34)CC2)c1` reads 5.27 µM. Take `O=C(CSC1=NNC(c2ccccn2)S1)Nc1ccccc1` (centres undefined): the AC50 was 0.823 µM.

Consider `CCc1ccc(NC(=O)CSc2ccc(-c3ccccn3)nn2)cc1`, for which the AC50 is 4.37 µM. Under `Cc1cccc(Nc2nc(-c3ccccn3)cs2)n1` stands 6.95 µM; under `O=C(COc1nsnc1N1CCOCC1)N/N=C/c1ccccc1O`, 34.9 µM. The result for `CS(=O)(=O)c1ccccc1-c1nnc(NC(=O)c2ccc3ncsc3c2)o1` reads 25.4 µM; that for `O=S(=O)(N[C@@H]1CC[C@@H](CCn2cc(-c3ccccn3)nn2)O[C@@H]1CO)c1cccc(Cl)c1`, 27.2 µM; that for `Cc1ccccc1CNc1nc(-c2ccccn2)nnc1-c1ccccc1`, 0.647 µM.

Take `C[C@@H](Nc1nc(-c2ccccn2)nnc1-c1ccccc1)C1CCCCC1`: the AC50 was 2.26 µM. Under `CCC(=O)NC(c1ccc(C)cc1)c1cc([N+](=O)[O-])c2cccnc2c1O` (centres undefined) stands 3.54 µM; under `CCCCCc1cc(=O)oc2c(C(CCN3CCCC3)c3ccc(N(C)C)cc3)c(OC)cc(OC)c12` (centres undefined), 6.86 µM; under `O=S(=O)(N[C@@H]1CC[C@H](CCn2cc(-c3ccccn3)nn2)O[C@@H]1CO)c1cccc(F)c1`, 29.1 µM. Take `O=c1oc2c3c4c(cc2s1)CCCN4CCC3`: the AC50 is 26.1 µM. The result for `CCOC(=O)c1cnc(Nc2nc3ccccc3o2)nc1CN1CCN(C)CC1` reads 6.81 µM; that for `O=C(N[C@@H]1CC[C@H](CCn2cc(-c3ccccn3)nn2)O[C@H]1CO)c1ccc(F)cc1`, 14.3 µM.

As to `O=S(=O)(N[C@H]1CC[C@@H](CCn2cc(-c3ccccn3)nn2)O[C@@H]1CO)c1cccc(Cl)c1`, the AC50 is 16.9 µM. Under `Oc1cc(NCCN2CCOCC2)cc2cccnc12` stands 1.46 µM.

Consider `Oc1ccc(CNC2CCc3ccccc32)c2cccnc12` (centres undefined), for which the AC50 was 1.22 µM. Take `O=C(Nc1nnc(-c2ccccn2)o1)c1cccc(Cl)c1`: the AC50 is 30.2 µM. Under `O=C(NCCCn1ccnc1)C(=O)NCC(c1ccco1)N1CCN(c2ccccc2)CC1` (centres undefined) stands 6.85 µM; under `CCN(CC)S(=O)(=O)c1cccc(C(=O)N/N=C/c2ccc(O)c(O)c2O)c1`, 4.5 µM; under `O=C(NC[C@H]1[C@@H](c2ccccc2)[C@@H](CO)N1Cc1ccccn1)C1CCC1`, 51.5 µM.

In the case of `Cc1[nH][nH]c(=O)c1C(c1c(C)[nH][nH]c1=O)c1cn(Cc2cccc3ccccc23)c2ccccc12`, the AC50 was 19.9 µM. On to `Oc1c(I)cc(I)c2cccnc12`, for which the AC50 was 7.46 µM. With `O=C(COC(=O)c1cccs1)Nc1nnc(-c2ccccc2)o1`, the AC50 is 14.1 µM. Under `O=C(c1ccccn1)N1CC[C@@H]2[C@H](CO)Nc3ccc(Br)cc3[C@@H]21` stands 24.1 µM; under `O=C(Nc1nc(-c2ccccn2)cs1)c1ccc([N+](=O)[O-])o1`, 11.1 µM; under `CCOc1ccc2c(c1)c(N=NC(=N)N)c(O)n2C`, 53.9 µM.

In the case of `O=C(NCCCn1ccnc1)C(=O)NCC1OCCN1S(=O)(=O)c1ccccc1` (centres undefined), the AC50 was 6.92 µM. Turning to `O=C(NN=Cc1c(O)ccc2ccccc12)c1ccncc1`, the AC50 is 9.94 µM. As for `COc1cc([N+](=O)[O-])cc(/C=N/NC(=O)Cn2cncn2)c1O`, the AC50 is 5.87 µM.

Take `CCC(=O)NC(c1ccc(C)cc1)c1ccc2cccnc2c1O` (centres undefined): the AC50 is 4.71 µM. Under `O=C(Cn1cnc([N+](=O)[O-])n1)N/N=C/c1ccc(O)cc1O` stands 4.97 µM; under `CC(Oc1ccc(F)cc1)C(=O)Nc1nc(-c2ccccn2)cs1` (centres undefined), 8.7 µM. `C=CCNc1nc(-c2ccccn2)nnc1-c1ccccc1`: the AC50 is less than 0.5 µM. Take `O=C(CSc1ccc(-c2ccccn2)nn1)NC1CCCC1`: the AC50 was 2.64 µM. Consider `O=C(N[C@H]1CC[C@@H](CCn2cc(-c3ccccn3)nn2)O[C@H]1CO)c1ccc(F)cc1`, for which the AC50 is 12.6 µM. Regarding `CC1=C(SCc2ccccc2)C(=O)c2ccccc2C1=O`, the AC50 is 39.7 µM. Under `Cc1ccsc1C(=O)OCC(=O)Nc1nnc(-c2ccccc2)o1` stands 14.4 µM. For `Cc1ccc(C)c(-n2c(SCC(N)=O)nnc2-c2ccccn2)c1`, the AC50 is 20 µM. Under `COc1ccc(Cc2nnc(N/N=C/c3ccccc3O)[nH]c2=O)cc1OC` stands 1.42 µM; under `CCCC(=O)NC(c1cccs1)c1cc([N+](=O)[O-])c2cccnc2c1O` (centres undefined), 3.51 µM.

Regarding `c1ccc(CNCCN2CCNCC2)nc1`, the AC50 was 6.79 µM.

Take `Cc1cc(C(=O)N/N=C/c2c(CO)cnc(C)c2O)c2ccccc2n1`: the AC50 was 3.5 µM. Consider `O=C(N/N=C/c1c(O)n(CCC2=CCCCC2)c(=O)[nH]c1=O)c1ccccc1`, for which the AC50 is 19.5 µM.

As to `NNc1ccc(S(=O)(=O)N2CCCCC2)cn1`, the AC50 was 9.17 µM. Under `CCCCn1c(NC(=O)c2ccco2)c(C(=O)OCC)c2nc3ccccc3nc21` stands 21.9 µM.

For `CC(NC(=O)c1ccco1)C(=O)Nc1nc(-c2ccccn2)cs1` (centres undefined), the AC50 was 4.52 µM. The result for `COc1ccc2ccccc2c1CNCc1ccccn1` reads 24.8 µM; that for `N#CC1(c2ccccc2)CCN(Cc2ccc(O)c3ncccc23)CC1`, 3.66 µM.

Take `CC(=O)NC(c1cc(Cl)c2cccnc2c1O)C(C)C` (centres undefined): the AC50 was 1.47 µM.
